From the RepoRT retention time repository (doi:10.1016/j.jhazmat.2019.121712)

Assay: Thermo Scientific Acclaim RSLC 120 C18, 100 × 2.1 mm, 2.2 µm, 30 °C; A: 90% water + 10% methanol + 0.01% formic acid + 5 mM ammonium formate; B: methanol + 0.01% formic acid + 5 mM ammonium formate; gradient (min/%B) 0.1/1 3/39 14/99.9 16/99.9
Conditions: stereoisomer not certain

In order of falling LC retention time:
1. CCCCCc1cc(O)c2c(c1)OC(C)(C)C1CCC(C)=CC21 (configuration not stated)  14 min
2. CC1COCc2cc3c(cc21)C(C)(C)C(C)C3(C)C (configuration not stated)  13.9 min
3. CC12CCC3C4CCC(=O)C=C4CCC3C1CCC2OC(=O)CCc1ccccc1 (configuration not stated)  13.6 min
4. CCC=CCC1=C(C)C(OC(=O)C2C(C=C(C)C)C2(C)C)CC1=O (configuration not stated)  13.3 min
5. Cc1nn(C)c(Oc2ccccc2)c1C=NOCc1ccc(C(=O)OC(C)(C)C)cc1  13.2 min
6. CCC(C)Nc1c([N+](=O)[O-])cc(C(C)(C)C)cc1[N+](=O)[O-] (configuration not stated)  13 min
7. Cc1cc(C)c(C2=C(OC(=O)CC(C)(C)C)C3(CCCC3)OC2=O)c(C)c1  12.8 min
8. CCCSP(=S)(OCC)Oc1ccc(SC)cc1 (configuration not stated)  12.8 min
9. CCCc1ccc(C(=O)c2cn(CCC)c3ccccc23)c2ccccc12  12.7 min
10. CCCCCc1cc(O)c2c(c1)OC(C)(C)C1CCC(CO)=CC21 (configuration not stated)  12.5 min
11. O=C(Oc1cccc2cccnc12)c1cn(CC2CCCCC2)c2ccccc12  12.4 min
12. COC(=O)C(NC(=O)c1nn(CC2CCCCC2)c2ccccc12)C(C)C (configuration not stated)  12.4 min
13. CCC(C)C(=O)OC1CC(C)C=C2C=CC(C)C(CCC3CC(O)CC(=O)O3)C21 (configuration not stated)  12 min
14. CCSC(=O)N(CC)C1CCCCC1  11.7 min
15. CNC(C)C1CCC(N)C(OC2C(N)CC(N)C(OC3OCC(C)(O)C(NC)C3O)C2O)O1 (configuration not stated)  11.6 min
16. CCCCOc1ccc(C(=O)OCCN(CC)CC)cc1  11.3 min
17. CCN(CC)c1nc(C)cc(OP(=S)(OC)OC)n1  11.3 min
18. CC(C)(C)NC(=O)C1CN(Cc2cccnc2)CCN1CC(O)CC(Cc1ccccc1)C(=O)NC1c2ccccc2CC1O (configuration not stated)  9.79 min
19. Cc1ccc(S(=O)(=O)NC(=O)NC2C3CCC(C)(C2O)C3(C)C)cc1 (configuration not stated)  9.79 min
20. CCC(C)(CC)c1cc(NC(=O)c2c(OC)cccc2OC)on1  9.42 min
21. COP(=O)(OC)OC(C)=CC(=O)OC(C)c1ccccc1 (configuration not stated)  9.39 min
22. CSC1=NC(C)(c2ccccc2)C(=O)N1Nc1ccccc1 (configuration not stated)  9.22 min
23. CCCCC(=O)N(Cc1ccc(-c2ccccc2-c2nn[nH]n2)cc1)C(C(=O)O)C(C)C (configuration not stated)  9.21 min
24. C=CCC1(C(C)C#CCC)C(=O)NC(=O)N(C)C1=O (configuration not stated)  9.09 min
25. CCC(CC)(CNC(=O)CCCO)c1cccc(OC)c1  8.98 min
26. CC(Cc1ccccc1)NCCC(c1ccccc1)c1ccccc1 (configuration not stated)  8.89 min
27. CCN(CC)CCCN(c1ccccc1)C1Cc2ccccc2C1  8.85 min
28. CN(C)CC(CN1c2ccccc2Sc2ccccc21)N(C)C (configuration not stated)  8.54 min
29. CNCC(C)CN1c2ccccc2CCc2ccccc21 (configuration not stated)  8.49 min
30. N#CC(CCN1CCC(C(N)=O)(N2CCCCC2)CC1)(c1ccccc1)c1ccccc1  8.19 min
31. CC12CCC3=C4CCC(=O)C=C4CCC3C1CCC2(O)CC#N (configuration not stated)  8.09 min
32. CCC(=O)C(CC(C)N(C)C)(c1ccccc1)c1ccccc1 (configuration not stated)  8.04 min
33. CCN(CC)CCOCCOC(=O)C1(c2ccccc2)CCCC1  7.87 min
34. CCOP(=S)(OCC)SCCS(=O)CC (configuration not stated)  7.86 min
35. CCNc1nc(NC(C)C)nc(OC)n1  7.81 min
36. CCOP(=O)(SC(C)CC)N1CCSC1=O (configuration not stated)  7.73 min
37. C=CC1(C)CC(OC(=O)CSCCN(CC)CC)C2(C)C(C)CCC3(CCC(=O)C32)C(C)C1O (configuration not stated)  7.71 min
38. C[N+]1([O-])CCN2c3ccccc3Cc3ccccc3C2C1 (configuration not stated)  7.63 min
39. CN(C)CCC=C1c2ccccc2CSc2ccccc21  7.61 min
40. COc1cc(C(=O)OCCCN(C)CCN(C)CCCOC(=O)c2cc(OC)c(OC)c(OC)c2)cc(OC)c1OC  7.54 min
41. COc1ccc(CCN(C)CCCC(C#N)(c2cc(OC)c(OC)c(OC)c2)C(C)C)cc1OC (configuration not stated)  7.19 min
42. Cc1cnc(NC(=O)C2=C(O)c3ccccc3S(=O)(=O)N2C)s1  7.09 min
43. O=C(c1ccccc1)c1ccc2n1CCC2C(=O)O (configuration not stated)  6.94 min
44. Cc1nnc2n1-c1ccc([N+](=O)[O-])cc1C(c1ccccc1)=NC2  6.91 min
45. COc1ccccc1OCCNCC(O)COc1cccc2[nH]c3ccccc3c12 (configuration not stated)  6.91 min
46. c1ccc2scnc2c1  6.88 min
47. CSc1ccc2c(c1)N(CCC1CCCCN1C)c1ccccc1S2=O (configuration not stated)  6.64 min
48. CNCC12CCC(c3ccccc31)c1ccccc12  6.52 min
49. COc1ccc2c(c1)C13CCCCC1C(C2)N(C)CC3 (configuration not stated)  6.51 min
50. c1coc(-c2nc3ccccc3[nH]2)c1  6.48 min
51. CC1CCC2N(C1)CC1C3CC4C(CC(O)C5CC(O)CCC54C)C3CCC1C2(C)O (configuration not stated)  6.44 min
52. c1ccc(CN(CC2=NCCN2)c2ccccc2)cc1  6.41 min
53. CCOC(=O)c1ccc(N)cc1  6.27 min
54. CCC1CN2CCc3c([nH]c4cccc(OC)c34)C2CC1C(=COC)C(=O)OC (configuration not stated)  6.23 min
55. CC=CC(=O)N(CC)C(CC)C(=O)N(C)C (configuration not stated)  6.13 min
56. CN(C)CCN(Cc1ccccc1)c1ccccn1  5.86 min
57. CCc1cnc(C2=NC(C)(C(C)C)C(=O)N2)c(C(=O)O)c1 (configuration not stated)  5.6 min
58. CCN(CC)C(=O)C1C=C2c3cccc4[nH]cc(c34)CC2NC1 (configuration not stated)  5.56 min
59. COC(=O)Nc1nc2ccccc2[nH]1  5.46 min
60. CCC1(c2ccccc2)C(=O)NCNC1=O  5.29 min
61. CC(COc1ccccc1)NC(C)C(O)c1ccc(O)cc1 (configuration not stated)  5.28 min
62. CCCN1CC(NS(=O)(=O)N(CC)CC)CC2Cc3c(O)cccc3CC21 (configuration not stated)  5.24 min
63. COc1cc(NS(=O)(=O)c2ccc(N)cc2)ncn1  4.75 min
64. Cc1noc(NS(=O)(=O)c2ccc(N)cc2)c1C  4.71 min
65. COCc1cnc(C2=NC(C)(C(C)C)C(=O)N2)c(C(=O)O)c1 (configuration not stated)  4.63 min
66. Cc1cc2c(OCC(O)CNC(C)C)cccc2[nH]1 (configuration not stated)  4.44 min
67. N=C(N)N1CCc2ccccc2C1  4.39 min
68. COc1ccc(NS(=O)(=O)c2ccc(N)cc2)nn1  4.38 min
69. Cc1ncc([N+](=O)[O-])n1CCCO  4.21 min
70. COc1ccc(CC(C)N)c(OC)c1OC (configuration not stated)  4.16 min
71. CC(C)(C)Nc1nc(N)[nH]c(=O)n1  3.99 min
72. CN1CSC(=S)N(C)C1  3.97 min
73. Cc1c(NC=O)c(=O)n(-c2ccccc2)n1C  3.96 min
74. CNC(=O)ON=C(SC)C(=O)N(C)C  3.77 min
75. CN1C2CCC1CC(OC(=O)C(O)c1ccccc1)C2 (configuration not stated)  3.73 min
76. COc1ccc2c3c1OC1C(=O)CCC4(O)C(C2)NCCC314 (configuration not stated)  3.71 min
77. CC(N)C(O)c1ccccc1 (configuration not stated)  3.68 min
78. Nc1ccc(S(=O)(=O)Nc2ncccn2)cc1  3.48 min
79. c1cncc(C2CCCN2)c1 (configuration not stated)  3.14 min
80. CN1C(=O)C(O)CC1c1cccnc1 (configuration not stated)  3.13 min
81. NC(=O)c1cccnc1  2.73 min
82. CCNC(C)C(O)c1ccc(O)c(O)c1 (configuration not stated)  1.99 min
